Two molecules from ChEMBL document CHEMBL2074264, “Expression cloning and characterization of ROAT1. The basolateral organic anion transporter in rat kidney” (J Biol Chem, 1997) can be followed below.

Series [1] deals with T1, Solute carrier family 22 member 6 (Rattus norvegicus, UniProt O35956).
T1 sequence (O35956 whole entry): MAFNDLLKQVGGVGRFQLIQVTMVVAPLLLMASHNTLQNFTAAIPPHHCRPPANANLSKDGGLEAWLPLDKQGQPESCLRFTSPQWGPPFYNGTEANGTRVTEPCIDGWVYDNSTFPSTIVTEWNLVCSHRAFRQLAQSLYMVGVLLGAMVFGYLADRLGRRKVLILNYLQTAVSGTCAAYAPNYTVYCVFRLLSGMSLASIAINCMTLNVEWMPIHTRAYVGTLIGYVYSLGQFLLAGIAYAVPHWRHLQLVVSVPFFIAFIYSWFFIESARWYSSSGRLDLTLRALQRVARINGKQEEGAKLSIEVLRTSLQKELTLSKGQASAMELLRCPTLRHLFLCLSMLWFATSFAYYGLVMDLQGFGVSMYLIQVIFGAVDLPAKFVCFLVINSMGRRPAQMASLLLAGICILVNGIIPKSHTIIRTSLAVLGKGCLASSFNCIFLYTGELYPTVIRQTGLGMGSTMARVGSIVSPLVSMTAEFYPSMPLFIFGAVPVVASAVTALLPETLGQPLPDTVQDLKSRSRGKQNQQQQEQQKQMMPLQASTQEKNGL
Briefly: TP_TRANSPORTER: inhibition of PAH uptake (PAH: 50 uM, Urate; 1000 uM) in Xenopus laevis oocytes. Format: functional, cell-based. To be noted: oocyte.

Substrate in series [2]: Nc1ccc(C(=O)NCC(=O)O)cc1
As to the kind of experiment: cells, lysate or membranes named.

With `O=c1[nH]c(=O)c2[nH]c(=O)[nH]c2[nH]1` [URIC ACID], the Activity entry in series [1] was “is not an inhibitor [-]”.

B1: Solute carrier family 22 member 6 (Rattus norvegicus) (protein)
chain: T1 sequence (O35956 whole entry)
For B1, the Km (commonly the substrate concentration at which the rate is half of its maximum) in series [2] was 70 µM.
